Experimental data from ChEMBL document CHEMBL1201862, “PubChem BioAssay data set” (2004).
Activity calls are given as the source filed them. Rule as the data show it: actives have a measured IC50 and inactives only a lower limit.

Molecular target: Envelope glycoprotein gp160 (Human immunodeficiency virus 1, UniProt Q6QLK5)
Test: cell-free HIV fusion peptide-binding blockers – biochemical, uHTS, fluorescence dequenching, […] (AID 1986)

Chain of Envelope glycoprotein gp160 (Q6QLK5 whole entry, the tested form may be a part): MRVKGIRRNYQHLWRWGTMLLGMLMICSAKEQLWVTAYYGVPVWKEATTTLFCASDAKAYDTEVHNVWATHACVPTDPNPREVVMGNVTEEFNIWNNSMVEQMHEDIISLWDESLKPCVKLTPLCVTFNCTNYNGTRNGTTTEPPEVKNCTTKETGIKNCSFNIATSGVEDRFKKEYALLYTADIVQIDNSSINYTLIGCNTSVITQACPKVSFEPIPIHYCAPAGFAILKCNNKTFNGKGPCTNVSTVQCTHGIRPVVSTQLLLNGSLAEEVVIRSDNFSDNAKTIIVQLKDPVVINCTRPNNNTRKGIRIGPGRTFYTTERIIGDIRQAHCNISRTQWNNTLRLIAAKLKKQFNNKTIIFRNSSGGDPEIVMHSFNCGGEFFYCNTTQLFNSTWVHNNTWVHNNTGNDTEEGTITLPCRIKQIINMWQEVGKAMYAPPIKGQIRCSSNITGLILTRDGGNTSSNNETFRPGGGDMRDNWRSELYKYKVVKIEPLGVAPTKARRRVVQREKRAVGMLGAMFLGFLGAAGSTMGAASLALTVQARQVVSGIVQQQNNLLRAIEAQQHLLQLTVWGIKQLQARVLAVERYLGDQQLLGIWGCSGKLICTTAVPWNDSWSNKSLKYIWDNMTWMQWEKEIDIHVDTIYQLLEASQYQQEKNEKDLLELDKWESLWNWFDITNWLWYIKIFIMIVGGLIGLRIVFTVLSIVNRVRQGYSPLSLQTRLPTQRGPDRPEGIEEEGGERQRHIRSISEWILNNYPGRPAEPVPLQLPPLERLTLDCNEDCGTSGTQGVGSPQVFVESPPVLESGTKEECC

SMILES | IC50
O=C(O)CN1C(=O)/C(=C\c2cc(Br)ccc2OCc2ccccc2F)SC1=S | 10.9 µM (active)
O=C(N/N=C/c1cc(Cl)cc([N+](=O)[O-])c1O)NC12CC3CC(CC(C3)C1)C2 | 23.2 µM (active)
